Ends that are not written are not given here.
Columns and labels:
[1] = system: S. pneumoniae strain WU2 adhesion to A549 cells; experiment: Inhibition of adhesion of S. pneumoniae strain WU2 to A549 cells; assay type: cell-based, Streptococcus pneumoniae; conditions: CFU counting
Description: (§1) A549 and D562 cells were cultured on fibronectin-coated 96-well plates (Fig 2 and S2 Fig) or on Ibidi 8 well chambers (Ibidi GmbH, Planegg/Martinsried, Germany; Figs 3, 4 and 5) or on 96-well plates without fibronectin coating (Figs 7 and 8 and S3 Fig), as previously described. Briefly, the cells were seeded at 5 × 10^4 cells/well in DMEM supplemented with 10% fetal calf serum (FCS) (without antibiotics). Twenty four hours later, the cells (~10^5 cells/well) were blocked with 0.5% gelatin for 1 h. rPtsA (0–500 nM) was then added to the cultured cells for 1 h of incubation. Excess protein was removed, and S. pneumoniae bacteria at a MOI of ~10:1 were added for additional 1 h of incubation. The inoculum size was verified in each experiment. […] Following the incubation, excess bacteria were removed, and cells were detached with trypsin and plated onto blood agar plates for counting. All the inhibitors were used at concentrations below their toxic concentrations either to the bacteria or to the cells. Keyhole limpet hemocyanin (KLH) protein was used as a negative control. Experiments were conducted in triplicates and repeated on 3 different occasions.
(§2) Inhibition of adhesion to A549 cells by anti-rPtsA antiserum, phages or peptides was performed as previously described. Briefly, bacteria were incubated for 1 h with rabbit anti-rPtsA antiserum, the phages, or the selected peptides. The bacteria were then added to the cultured human cells for an additional hour. Following this incubation, excess bacteria were removed, and the procedure was continued as described above. All the inhibitors were used at concentrations below their toxic concentrations either to the bacteria or to the cells. Negative controls included pre-immune serum, phage carrying no insert or a non-inhibitory insert, and a scrambled peptide. Each experiment was performed in triplicates and repeated on 3 different occasions and a representative experiment is presented.

rPtsA = rPtsA (Streptococcus pneumoniae serotype 4, UniProt A0A0H2UQ90); experiment: biochemical; assay type: binding
Description: In all cases, 16 serial dilutions of each putative receptor-derived peptide (~90 nM–3.175 mM) were mixed with a constant concentration of 335 nM labeled rPtsA protein. The normalized change in the fluorescence of the labeled rPtsA protein was plotted against the peptide concentration, and a fit was computed by the NTP program. The experiments were performed in triplicate.
rPtsA labeled with fluorescent NT-495 dye at a constant concentration of 335 nM was mixed with sixteen serial dilutions (~90 nM–3.175 mM) of peptides derived from PCDH19, MMRN1, Eps1, Int β and BMPER. Contactin 4, was used as a negative control. MST analysis was performed using Monolith NT.115 (NanoTemper Technologies GmbH, München, Germany). The normalized change in the fluorescence of bound and unbound labeled rPtsA (ΔF) is indicative of the peptide binding. Plotting ΔF vs. peptide concentration facilitated the generation the dissociation curves, computed by the NTP program. In this way the Kd, reflecting the affinity of each of the peptides for rPtsA, was obtained. […] Each experiment was performed in triplicate.

[2] = system: S. pneumoniae adhesion to A549 cells; experiment: Inhibition of adhesion of S. pneumoniae to A549 cells, strain not stated (scrambled peptide control); assay type: cell-based, Streptococcus pneumoniae; conditions: bacteria treated 1 h with peptide, added to A549 cells for 1 h; CFU counting; strain not printed (Fig 8K)
Description: as §1
Fig 8 Inhibition of adhesion of S. pneumoniae cells to A549 cells by target-derived peptides. […]

[3] = system: S. pneumoniae strain D39 adhesion to A549 cells; experiment: Inhibition of adhesion of S. pneumoniae strain D39 to A549 cells; assay type: cell-based, Streptococcus pneumoniae; conditions: bacteria treated 1 h with peptide, added to A549 cells (plates without fibronectin coating) for 1 h; CFU counting
Description: as §1
(§3) Inhibition of adhesion to A549 cells by anti-rPtsA antiserum, phages or peptides was performed as previously described. Briefly, bacteria were incubated for 1 h with rabbit anti-rPtsA antiserum, the phages, or the selected peptides. […]

[4] = system: S. pneumoniae strain WU2 adhesion to Detroit 562 cells; experiment: Inhibition of adhesion of S. pneumoniae strain WU2 to Detroit 562 cells; assay type: cell-based, Streptococcus pneumoniae; conditions: bacteria treated 1 h with peptide, added to Detroit 562 cells for 2 h; CFU counting; 3–6 replicates
[5] = system: S. pneumoniae strain R6 adhesion to A549 cells; experiment: Inhibition of adhesion of S. pneumoniae strain R6 to A549 cells; assay type: cell-based, Streptococcus pneumoniae; conditions: bacteria treated 1 h with peptide, added to A549 cells (plates without fibronectin coating) for 1 h; CFU counting
Description: as §1, §3

[6] = system: S. pneumoniae strain 3.8DW adhesion to A549 cells; experiment: Inhibition of adhesion of S. pneumoniae strain 3.8DW to A549 cells; assay type: cell-based, Streptococcus pneumoniae; conditions: bacteria treated 1 h with peptide, added to A549 cells (plates without fibronectin coating) for 1 h; CFU counting
Description: as §1, §2

S. pneumoniae strain WU2 = experiment: Nasopharyngeal and lung colonization of CBA/N^xid mice after intranasal inoculation of peptide-pretreated strain WU2; assay type: in vivo, Streptococcus pneumoniae
Description: BALB/c (highly resistant to S. pneumonia) or CBA/N^xid (highly susceptible to S. pneumoniae) mice strains were immunized subcutaneously (SC) with 25 μg of rPtsA emulsified with complete Freund’s adjuvant (CFA) and subsequently boosted (days 14 and 28) with incomplete Freund’s adjuvant (IFA). On day 42, the BALB/c and CBA/N^xid mice were challenged intranasally (IN), under deep anesthesia using Isoflurane (Piramal Critical Care Inc., PA, USA), with a sublethal dose of strain WU2 (5 × 10^7 and 5 ×x 10^5, respectively). Mice were humanely sacrificed 3 and 24 h later by CO2 asphyxiation, as recommended by the AVMA Guidelines for Euthanasia in Animals: 2013 Edition (https://www.avma.org/KB/Policies/Documents/euthanasia.pdf). Strain WU2 cells were pretreated with the respective peptides and then inoculated IN into adult CBA/N^xid mice. Mice were euthanized 3, 24 or 48 h later with CO2. The nasopharynx and right lobe lung were excised, homogenized and plated onto blood agar plates for bacterial colony counting. For survival experiments, after an immunization regime similar to that described above, BALB/c or CBA/N^xid mice were challenged with a lethal dose of strain WU2 either IN (10^8 CFU and 10^6 CFU, respectively) or intravenously (10^4 CFU). […] The following criteria were considered sufficient evidence of distress to warrant such intervention in order to minimize pain and suffering of the animals: severe weight loss (20% body weight); reluctance or inability to move freely; appearance of bristle fur; social disengagement; refusal or inability to eat or drink. No analgesic treatment was provided, as such treatment may alter the immune response and may independently affect the outcome of the experiments.
Strain WU2 cells were pretreated with Eps 1, BMPER and PCDH19 peptides and then inoculated IN into adult CBA/N^xid mice. Mice were euthanized 3, 24 or 48 h later. The nasopharynx and lungs were excised, homogenized and plated onto blood agar plates for counting. As a control, another group of mice was injected with bacteria treated ex vivo for 1 h with PBS alone.
Fig 9 Effects of target-derived peptides on nasopharyngeal and lung colonization and survival in mice. Strain WU2 cells were pretreated with peptide and then inoculated IN into adult CBA/N^xid mice. As a control, another group of mice was injected with bacteria treated ex vivo for 1 h with PBS alone. Mice were euthanized 3, 24 or 48 h later. The nasopharynx and lungs were excised, homogenized and plated onto blood agar plates for counting. […]

[7] = target: HAT-tagged recombinant phosphoenolpyruvate protein phosphotransferase (rPtsA) (Streptococcus pneumoniae (serotype 3 strain WU2)); experiment: MST; labeled rPtsA (NT-495 dye) constant at 335 nM; 16 serial dilutions of each peptide (~90 nM–3.175 mM); Monolith NT.115; triplicate
[8] = bacteria incubated 1 h with antiserum or phage, then added to gelatin-blocked A549 cells (fibronectin-coated plates) for 1 h
[9] = bacteria treated 1 h with peptide, added to A549 cells (96-well plates without fibronectin coating) for 1 h
[10] = WU2 pretreated with Eps 1 (14.7 μM), versus sham-treated (PBS) bacteria
[11] = WU2 pretreated with peptide (Eps 1 14.7 μM; BMPER 7 and 14 μM; PCDH19 14.7 and 27.4 μM), versus sham-treated bacteria

Question: For ADDESPEMKPGX [phage D8], which “Inhibition of adhesion of strain WU2 to A549 cells” value [1, 8] is on record?
Answer: inhibited

Question: With ADGGVPV [phage H10] as the molecule, how does the “Inhibition of adhesion of strain WU2 to A549 cells” value [1, 8] read?
Answer: inhibited

Question: And the “Reduction in adhesion of strain WU2 to A549 cells” value ([1]; phage incubated with strain WU2 for 1 h, added to A549 cells, in comparison to adhesion of bacteria without inhibitors)?
Answer: 75%

Question: With AVVVNDANRTRK [phage D3] as the molecule, how does the “Inhibition of adhesion of strain WU2 to A549 cells” value [1, 8] read?
Answer: inhibited

Question: How did the “Inhibition of adhesion of strain WU2 to A549 cells” value [1, 8] turn out when DQRPAXRRMYRA [phage D10] was run?
Answer: inhibited

Question: How did the Kd (rPtsA) turn out when DQVARIPVIRRV [Intβ4] was run?
Answer: 115 ± 20.5 µM

Question: LDSIRIIVIRRI [phage H9] was tested. Which “Inhibition of adhesion of strain WU2 to A549 cells” value [1, 8] did it give?
Answer: inhibited

Question: For LPADWATTLMVCSSK [scrambled peptide], which “Inhibition of adhesion of S. pneumoniae to A549 cells” value [2] is on record?
Answer: No significant inhibition

Question: Which results are given for SDGGVPV [Eps 1]?
Answer: Inhibition of adhesion of strain D39 to A549 cells [3]: significantly inhibited; Inhibition of adhesion of strain WU2 to Detroit 562 cells [4]: significant inhibition; Inhibition of adhesion of strain R6 to A549 cells [5]: significantly inhibited; Inhibition of adhesion of strain WU2 to A549 cells [1, 9]: significantly inhibited; Inhibition of adhesion of strain 3.8DW to A549 cells [6]: significantly inhibited; Bacterial load in the lungs, 3 h post inoculation (S. pneumoniae strain WU2; [10]): significant reduction; Bacterial load in the nasopharynx, 3 h post inoculation (S. pneumoniae strain WU2; [10]): significant reduction; Bacterial load in the lungs, 48 h post inoculation (S. pneumoniae strain WU2; [11]): significant reduction; Bacterial load in the nasopharynx, 48 h post inoculation (S. pneumoniae strain WU2; [11]): significant reduction

Question: TEQVSDQKNAPA [MMRN1] was tested. Which “Inhibition of adhesion of strain WU2 to A549 cells” value [1, 9] did it give?
Answer: significant inhibition

Question: What about the “Inhibition of adhesion of strain 3.8DW to A549 cells” value [6] of the same molecule?
Answer: significant inhibition

Question: Which “Inhibition of adhesion of strain WU2 to A549 cells” value [1, 8] does the source give for TXQVSNHKNHTN [phage E6] here?
Answer: inhibited

Question: For VLVKNDARRTRS [BMPER], which Kd (rPtsA) is on record?
Answer: 21 ± 5.49 µM

Question: VVVSDATRVRVA [Col VII] was tested. Which “Inhibition of adhesion of strain WU2 to A549 cells” value [1, 9] did it give?
Answer: significant inhibition

Question: And the “Inhibition of adhesion of strain 3.8DW to A549 cells” value [6]?
Answer: significant inhibition

Question: Which “Kd (affinity of rPtsA binding to peptide)” value (rPtsA; MST, Monolith NT.115, 335 nM NT-495-labeled rPtsA, 16 serial dilutions of peptide ~90 nM–3.175 mM, fit by NTP program, triplicate) does the source give for “WECKANGRPKPTY [Contactin 4-derived peptide, reference compound]” here?
Answer: a fit could not be generated

Question: How did the Kd [7] turn out when DGGVPML [PCDH19-derived peptide] was run?
Answer: 58 µM

Question: For SDGGVPV [Eps 1-derived peptide], which Kd [7] is on record?
Answer: 43.9 µM

Question: How did the Kd [7] turn out when DQVARIPVIRRV [Int β4-derived peptide] was run?
Answer: 115 µM

Question: With TEQVSDQKNAPA [MMRN1-derived peptide] as the molecule, how does the Kd [7] read?
Answer: 391 µM

Question: For VLVKNDARRTRS [BMPER-derived peptide], which Kd [7] is on record?
Answer: 21 µM

From paper PMC4798226, “Streptococcus pneumoniae Cell-Wall-Localized Phosphoenolpyruvate Protein Phosphotransferase Can Function as an Adhesin: Identification of Its Host Target Molecules and Evaluation of Its Potential as a Vaccine” (PLoS ONE, 2016)
